Laboratory results published in PubChem BioAssay AID449762 (Southern Research Specialized Biocontainment Screening …, 2010).
Records with an inconclusive call do not appear.

These compounds were tested on M. tuberculosis H37Rv growth inhibition, 7H9 media (assay: M. tuberculosis growth inhibition, HTS (AID 449762;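 note: bacterial growth assessed after seven days of incubation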)). Conditions: measured here: IC90 growth inhibition.

| SMILES | IC90 [µM] |
| --- | --- |
| Cc1ccc(-n2cccc2C(=S)N=P(N(C)C)(N(C)C)N(C)C)cc1 | 25.5 |
| COc1ccc(-c2csc(NC(C)c3nc4cc(Cl)c(N5CCCCC5)cc4n3CCCO)n2)cc1 (stereo not drawn) | 12.7 |
| Cc1cc2oc3ccc(NCCCn4ccnc4)cc3c(=O)c2cc1C | 27.5 |
| Cn1c(N)c(C(=O)COC(=O)c2ccc([N+](=O)[O-])o2)c(=O)n(C)c1=O | 4.54 |
| C/C(=N\NC(N)=S)c1ccc(Cl)s1 | 17.7 |
| CCOc1ccc(-c2csc(/C(C#N)=C\c3ccc(O)c([N+](=O)[O-])c3)n2)cc1 | > 100 |
| O=C(/C=C/c1ccco1)Oc1ccc(C(=S)N2CCOCC2)cc1 | > 100 |
| S=C(NCc1ccc(Cl)cc1)NC12CC3CC(CC(C3)C1)C2 | 11.6 |
| CN1CCN(c2ccc(S(=O)(=O)N3CCCCC3)cc2NC(=O)/C=C/c2ccc(Cl)c([N+](=O)[O-])c2)CC1 | 38.7 |
| CN1CCc2cc3c(c4c2C1Cc1ccccc1-4)OCO3 (stereo not drawn) | 1.94 |
| COc1cc(C2c3cc4c(cc3C(OC3OC5COC(c6cccs6)OC5C(O)C3O)C3COC(=O)C23)OCO4)cc(OC)c1O (stereo not drawn) | 29.5 |
| C=CCNc1oc(-c2ccc(-c3ccccc3)cc2)nc1C#N | 13.7 |
| O=C(c1cc([N+](=O)[O-])cc([N+](=O)[O-])c1)N(Cc1nnc(-c2ccccc2Cl)o1)C1CC1 | 8.42 |
| CCCn1nnnc1NC(=O)c1ccc(C)cc1Cl | 19.4 |
| Cc1cc(C)n(-c2ccc(C(=O)Oc3ccc4c(c3)OCO4)cc2)n1 | 13.3 |
| Oc1ccc(C[C@H]2CNCCN2CCCCC2CCCCC2)cc1 | 59.2 |
| CCCC12CN3CC(CCC)(CN(C1)C3c1ccccn1)C2=O (stereo not drawn) | 18.1 |
| CCOC(=O)c1ccc(NC2=CC(=O)C(=O)c3ccccc32)cc1 | 39.7 |
| CC(C(c1ccc2c(c1)OCO2)c1c(N)n(C)c(=O)n(C)c1=O)[N+](=O)[O-] (stereo not drawn) | 6.08 |
| O=C(CCl)N1CCN2C(=O)c3ccccc3C12c1ccc(Cl)cc1 (stereo not drawn) | 7.84 |
| COC(=O)c1ccc2c(=O)[nH]c(CSc3nc(C)cs3)nc2c1 | > 100 |
| Nc1nc2ccccc2n1CCOc1ccccc1Cl | 13.3 |

| SMILES | IC90 [µM] |
| --- | --- |
| Fc1ccc(C[n+]2c(-c3ccccc3)cc(-c3ccccc3)cc2-c2ccccc2)cc1 | 44.3 |
| O=C(C/C=N\OCc1ccc([N+](=O)[O-])cc1)Nc1ccc(F)cc1F | 98.4 |
| COC(=O)C1CC(=O)N(c2ccc(OCc3ccccc3Cl)cc2)C1 (stereo not drawn) | 3.52 |
| CCCC(NCC(O)COc1ccc(-c2ccccc2)cc1)c1ccccc1 (stereo not drawn) | 14.9 |
| Clc1ccc2c(c1)CCc1cccnc1C2=C1CCNCC1 | 31.3 |
| COCc1nnc(NC(=O)C2CC(=O)N(c3ccc(C)c(Cl)c3)C2)s1 (stereo not drawn) | > 100 |
| Cc1cc(Cl)ccc1NNC(=O)CCc1ccccc1 | > 100 |
| CCc1c(C2(O)CCCCC2)[nH]c2ccc(C(F)(F)F)cc12 | > 50 |
| S=C1SCN(Cc2ccco2)CN1Cc1ccco1 | 52.3 |
| N#C/C(=N/Nc1ccc(OC(F)(F)F)cc1)C(N)=S | 3.43 |
| CC(C)(C)c1ccc(C(=O)NNc2cc(N3CCCCC3)nc(N3CCCCC3)n2)cc1 | 74.8 |
| CCOC(=O)c1ccc(Nc2cc3ccccc3c(=O)[nH]2)cc1 | > 100 |
| CC(C)(C)c1ccc(C(=O)CSc2n[nH]c(=O)[nH]c2=O)cc1 | 25.4 |
| CCOC(=O)c1c(/N=C/N(C)C)sc(/C=N/Nc2ccccc2)c1-c1ccccc1Cl | > 100 |
| CCOc1ccc(-c2cnc(NCc3cccc4ccccc34)n2CCOC)cc1 | 8.14 |
| CCCCCCN=C1CC(C)(C)CC(=O)/C1=C(/O)CCC | > 100 |
| CCCOc1ccc2oc(=O)c3c(c2c1)CCCN3C(=O)CN1CCN(c2ncccn2)CC1 | 33.8 |
| CC(C)C1N=C(c2ccc3c(c2)OCO3)CC(c2ccccc2O)N1 (stereo not drawn) | 30.4 |
| O=[N+]([O-])/C=C/c1cn(Cc2ccccc2)c2ccccc12 | > 100 |
| Cc1c(Cl)ccc2sc(N3CCN(C(=O)C4=COCCO4)CC3)nc12 | 59 |
| Cc1ccc(N/C=C2\C(=O)C3(C)CCC2C3(C)C)cc1C (stereo not drawn) | > 100 |
| Cc1nc2ccccc2c2nc3ccccc3n12 | 55.2 |

| SMILES | IC90 [µM] |
| --- | --- |
| CCCNc1nc(-c2cc(C(=O)Nc3ccccc3)on2)cc(C(C)C)n1 | 59.3 |
| CCc1nc(N2CCN(C(C)=O)CC2)c2c3c(sc2n1)CC(C(C)(C)C)CC3 (stereo not drawn) | 14.1 |
| C/C(=N\Nc1ccc(Cl)c(Cl)c1)c1ccc(-n2ccnc2)cc1 | 86.4 |
| CCN(CC)C(=O)[C@H]1CC(CC(=O)NCC23CC4CC(CC(C4)C2)C3)C(=O)N2CCc3c([nH]c4ccccc34)[C@]12C (stereo partly drawn) | 24.8 |
| CCOC(=O)c1[nH]c2ccc(F)cc2c1NC(=O)CN1CCN(C/C=C/c2ccccc2)CC1 | 27.1 |
| Brc1ccc(N/N=C(/N=Nc2nn[nH]n2)c2ccccc2)cc1 | 22.1 |
| CCCCOC(=O)NS(=O)(=O)c1sc(CC(C)C)cc1-c1ccc(Cn2c(CC)nc3c(C)cc(C)nc32)cc1 | 35.4 |
| c1ccc(-c2cn3c(n2)CCc2ccc4cccnc4c2-3)cc1 | 41.2 |
| Cc1cc(C2N=C(N)Nc3nc4ccccc4n32)c(C)n1-c1ccccc1Cl (stereo not drawn) | 16.6 |
| O=C(C1CC1)N1CCCC(c2ccc(Cl)cc2)=N1 | 50.2 |
| CCCOc1ccc2c(c1)C(=NN=C(N)N)c1cc(OCCC)ccc1-2 | 13.1 |
| COc1ccc(C=C2C=C(C(C)(C)C)C(=O)C(C(C)(C)C)=C2)cc1OC | 5.15 |
| COC(=O)[C@@H](NC(=O)O[C@@H]1C(=O)c2ccc(OC)cc2O[C@H]1c1cccc(C(F)(F)F)c1)C(C)C | > 100 |
| CCc1ccc(NC2=NCC(c3ccccc3)S2)cc1 (stereo not drawn) | > 100 |
| COC(=O)CSc1nnc([C@H](CC(C)C)NC(=O)OC(C)(C)C)o1 | 32.9 |
| Cc1cc2c(ccc3c2no[n+]3[O-])nn1 | 14.6 |
| Cc1nc(N)nc(N)c1CCCc1ccc(Cl)c(Cl)c1 | > 100 |
| CCOc1ccc(Nc2cc(C)nc(-n3nc(C)cc3C)n2)cc1 | 4.77 |
| CS(=O)(=O)c1ncc(Cl)c(C(=O)Nc2ccc(OC(F)F)cc2)n1 | 15.5 |
| O=C(c1ccc(-c2cccc(C(F)(F)F)c2)o1)N1CCN(c2ccccc2O)CC1 | 26.1 |
| CCCCNC(=S)Nc1ccc2cn[nH]c2c1 | 21.3 |
| CC(=O)Nc1ccc(S(=O)(=O)Nc2ccc(N3CCCCC3)cc2)cc1 | 13.8 |

| SMILES | IC90 [µM] |
| --- | --- |
| CCn1cc(Br)c(C(=O)Nc2ccc(C(=O)OC(C)C)cc2)n1 | 57.8 |
| Cc1c(OCc2ccccc2)c(=O)ccn1Cc1ccc(Cl)cc1 | 60.1 |
| CCOC(=O)c1ccc(NC(=O)Cn2ncc(Cl)c(Cl)c2=O)cc1 | 0.44 |
| OC(COC(c1ccc(Cl)cc1)c1ccc(Cl)cc1)CN1CCc2ccccc2C1 (stereo not drawn) | 24.7 |
| CC1CCc2c(sc3ncnc(NCCCOC(C)C)c23)C1 (stereo not drawn) | 67.1 |
| Cc1ccc2nc(-c3ccncc3)cc(-c3ccccc3)c2c1 | 47.2 |
| COC(=O)COc1ccc(-c2ccccc2)cc1C=O | 19 |
| CNc1ncnc2c1ncn2[C@@H]1O[C@H](CO)[C@@H](O)[C@H]1O | 5.73 |
| O[C@@H](c1cc(C(F)(F)F)nc2c(C(F)(F)F)cccc12)[C@H]1CCCCN1 | 24.5 |
| CCOC(=O)c1ccc(Oc2nc(NC(C)(C)C)nc(N(C)C)n2)cc1 | 82.2 |
| CC(C)OC(=O)CSc1nc2ccccc2s1 | 33.6 |
| COc1cc2c(cc1OC)CN(CCC(=O)c1ccc(Br)cc1)CC2 | 13.7 |
| Cc1cc(N2CCN(c3ccc(C(F)(F)F)cc3[N+](=O)[O-])CC2)c2ccccc2n1 | 23.7 |
| CC1(C)CN(c2ccccc2)N(C(=O)c2ccc(C#N)cc2)C1=O | > 100 |
| O=C(CCC(=O)OCc1ccc(C(=O)Oc2ccc(Cl)cc2)cc1)Nc1ccccc1 | 44 |
| Cc1nc(S/C(=C/c2ccc(-c3ccc(Cl)cc3)o2)C(=O)O)n[nH]1 | > 100 |
| CC(C)n1cnc2c(NCc3ccccc3)cc(Cc3ccc(F)cc3)cc21 | 36.5 |
| COc1ccccc1NC(=O)C(C)OC(=O)/C=C/c1ccc2ccccc2n1 (stereo not drawn) | 11.4 |
| O=C(CSc1ncnc2nc[nH]c12)c1ccc(Cl)cc1 | 13.9 |
| CC(C)CNC(=S)NC(=O)c1csc([N+](=O)[O-])c1 | 15.1 |
| COc1ccc(-c2cc(-c3ccc(OC)cc3)[nH]n2)cc1 | 1 |
| O=C(CCc1ccc(Oc2cc([N+](=O)[O-])cc([N+](=O)[O-])c2)cc1)N1CCCCCC1 | 27 |
